Where no end group is shown, it is not given here.
Tests used:
C81 cells = assay: Proliferation/cytotoxicity, castration-resistant C81 cells (MTT); format: cell-based; conditions: different concentrations; Fig. 3C; averages of three independent experiments; P<0.03 vs Vehicle
Procedure: LNCaP, C81, PC-3 and Cos cells were grown as previously described. CWR-22Rv1 cells were cultured in RMPI-1640 medium with 10% FBS and 50 µg/ml Gentamicin (Gibco). Control siRNA, sGCα1 siRNA and AKT siRNA (Dharmacon) at 50 nM final concentration was transfected into cells using Lipofectamine siMAX (Invitrogen).
For proliferation, cells were grown in medium containing 2% FBS extracted with dextran-coated charcoal (DCC). 48 hours later, ethanol or 1 nM R1881 was added to the cells followed by peptide treatment. The MTT assay (Sigma) was used as before to determine cell number. For apoptosis, 5000 cells were seeded in 96-well plates and treated with Vehicle (DMSO), Peptide A-8R (25 µM), Etoposide (50 µM) (Sigma) at different time points. The Caspase (3/7) activity was measured using Apo-ONE Homogeneous Caspase-3/7 assay kit (Promega). PARP cleavage was also used to measure apoptosis, and is described below.
Vehicle or different concentrations of Peptide A-8R or C-8R, as shown, was added to (A) hormone-dependent LNCaP cells grown in 2% serum without or with 1 nM R1881, (C) castration-resistant C81 or CWR-22Rv1 cells, or (E) sGCα1-deficient PC-3 or Cos cells. Cell number was measured after various days of incubation. Data points represent averages of three independent experiments plus standard deviations. […]

sGCα1 [1] = biological target: T1, sGCα1 (Homo sapiens, UniProt Q02108); assay: Immunocytochemistry co-localization in LNCaP cells; format: cell-based; conditions: 25 µM Biotin-labeled Peptide A-8R, 2 hrs, Fig. 2A
T1 sequence (Q02108 1-690): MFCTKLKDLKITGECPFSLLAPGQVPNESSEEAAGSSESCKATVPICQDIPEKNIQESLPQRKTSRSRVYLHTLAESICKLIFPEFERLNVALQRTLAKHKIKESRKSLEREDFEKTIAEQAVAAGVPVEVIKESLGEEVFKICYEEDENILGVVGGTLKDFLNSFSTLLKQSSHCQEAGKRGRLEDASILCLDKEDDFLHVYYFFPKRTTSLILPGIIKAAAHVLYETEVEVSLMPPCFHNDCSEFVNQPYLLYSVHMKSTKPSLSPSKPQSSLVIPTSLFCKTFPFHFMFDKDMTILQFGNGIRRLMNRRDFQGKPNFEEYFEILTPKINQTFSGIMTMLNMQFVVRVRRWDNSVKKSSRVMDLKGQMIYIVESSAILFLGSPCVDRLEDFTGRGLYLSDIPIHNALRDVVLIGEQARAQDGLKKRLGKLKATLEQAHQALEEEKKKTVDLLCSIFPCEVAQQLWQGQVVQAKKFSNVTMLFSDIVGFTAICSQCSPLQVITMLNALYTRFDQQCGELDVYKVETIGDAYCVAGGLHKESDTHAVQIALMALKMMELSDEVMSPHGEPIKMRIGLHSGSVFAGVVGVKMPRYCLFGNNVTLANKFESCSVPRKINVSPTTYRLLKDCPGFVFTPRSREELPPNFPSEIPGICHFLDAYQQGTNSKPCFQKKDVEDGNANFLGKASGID
Procedure: Immunocytochemistry was used to study the subcellular localization of sGCα1 and Biotin-labeled Peptide-8R in LNCaP cells. FITC-labeled anti-sGCα1 antibody (1∶100 dilution; Santa Cruz Biotechnology), anti-Biotin antibody (1∶200; Santa Cruz Biotechnology) were used for immunocytochemisty as described.
(§1) Figure 2 Peptide A-8R interacts with sGCα1 in prostate cancer cells. (A) LNCaP cells were treated with 25 µM Biotin-labeled Peptide A-8R for 2 hrs and subjected to immunocytochemistry using anti-sGCα1 or anti-Biotin antibody to measure subcellular co-localization of endogenous sGCα1 and Peptide A-8R. DAPI was used to stain nuclei. (B) LNCaP cytosolic extracts were incubated with Peptide A-8R-Biotin and subjected to purification using streptavidin-agarose. This pull-down experiment was repeated with competing excess amount of unlabeled Peptide C-8R or Peptide A-8R. In both cases Western blotting was used to measure the co-purification of sGCα1. (C) LNCaP cell extract was incubated with different concentrations of Peptide A-8R-FITC and endogenous sGCα1 was immunoprecipitated. Co-purified Peptide A-8R-FITC was quantified by measuring fluorescence signal emission. Nonlinear regression analysis was used to determine an affinity for Peptide A-8R binding to sGCα1. […] Cell number was measured after 0–48 hrs of incubation. […]

sGCα1 [2] = biological target: T1, sGCα1; assay: Binding affinity by immunoprecipitation with FITC-tagged peptide; set-up: endogenous sGCα1 was immunoprecipitated; endogenous in cells; host or cells: C81 cells (methods); conditions: C81 whole-cell extract (legend: LNCaP extract), room temperature, 2 hours, IP with anti-sGCα1, fluorescence 485/521 nm, nonlinear regression
Procedure: For binding affinity experiments, whole-cell extract from C81 cells was incubated with different concentrations of Peptide A-8R tagged with FITC at room temperature for 2 hours. IPs were performed using antibodies against sGCα1 or rabbit IgG as control. Peptide A-8R-FITC pulldown was measured by fluorescence signal at excitation and emission wavelengths of 485 and 521 nm, respectively, using a multi-well fluorescence plate reader.
as §1, with “emission.” for “emission. Nonlinear regression analysis was used to determine an affinity for Peptide A-8R binding to sGCα1.”

Ac-TFCKAFPFHIIRRRRRRRR [Peptide A-8R]
suppression of growth of C81 cells (C81 cells): very effective at suppressing the growth of C81 cells (Fig. 3C), matching the effect on hormone-dependent LNCaP cells | co-localization with sGCα1 (sGCα1 [1]): colocalizes with sGCα1 only in the cytoplasm of LNCaP cells | Kd (sGCα1 [2]): 11.6 µM
